From US20260069693A1, “UROLITHINS AND T-CELL MEDIATED IMMUNE RESPONSE” (priority 2022, published 2026)

Legend:
T cells = assay: immunoblot, cell fractionation and immunofluorescence of stimulated T cells; assay type: cell-based, mice
Procedure: Activated T cells were incubated on Poly-L-lysine coated coverslips for 10 min at 37° C. and then fixed with 4% PFA for 10 min, followed by permeabilization with 0.25% Triton X-100 for 10 mins. Staining for Pgam5 was performed as previously described (Yamaguchi et al., 2019), using rabbit Anti-Pgam5 antibody (ab126534, Abcam). Immune complexes were detected with 1:200-diluted anti-rabbit IgG Alexa Fluor 488 (Thermo Fisher). Nuclei were counterstained with a DAPI-containing liquid […] mountant (ProLong™ Gold Antifade Mountant, Thermo Fisher). Mitochondria were stained with 200 nM Mitotracker Red for 45 min Image were acquired by confocal microscopy.
5×10^6 isolated T cells were stimulated on cell-culture plates coated with 1:200 α-CD3 (145-2C11; 100339; BioLegend) and α-CD28 (37.51; 102115, Biolegend) for the indicated time points. After centrifugation for 5 mins at 1500 rpm, cell pellets were resuspended in complete protein lysis buffer (50 mM Tris pH 7.5, 250 mM sodium chloride, 30 mM EDTA, 25 mM sodium pyrophosphate, 1% Triton-X 100, 0.5% NP-40, 10% glycerol and 1 mM DTT) supplemented with protease and phosphatase inhibitors (Roche). When subcellular location of Pgam5 was studied, a cell fractionation kit (Abcam, Ab109719) was used according to the manufacturer's instructions. Fractionation and whole-cell lysates were snap frozen and stored at −80° C. until further analysis. Collected lysates were mixed with 10% β-mercaptoethanol Laemmli buffer and denatured for 10 min at 70° C. Equal amounts of protein as assessed by Bradford measurement (Pierce™ Coomassie Plus (Bradford) Assay Reagent, ThermoFisher) were subjected to 10-15% SDS-PAGE, then transferred to […] PVDF membranes (MeckMillipore). Membranes were blocked for 30 mins in PBS-T/5% milk or PBST-T/5% BSA prior to antibody incubation overnight with the following antibodies: β-Actin (Sigma; #A4700), Gapdh (Santacruz; sc32233), Parkin (Santacruz; sc32283), Phospho-β-Catenin (CellSignaling; 9561), TOM20 (CellSignaling; D84TN; 42406S); pStat1 (Cellsignaling; 9167) and PGAM5 (Abcam; ab126534). Afterwards, membranes were incubated for one hour with their respective HRP-conjugated secondary antibodies (Santacruz: sc2314 and sc2313), followed by development using SuperSignal West Pico Chemoluminescence Substrate (ThermoFischer Scientific). 2D densitometry was performed using ImageJ Software (National Institutes of Health, Bethesda, Maryland).

Splenic murine T cells = assay: aCD3/aCD28 stimulation of murine T cells in presence of UA, flow cytometry; assay type: cell-based
Procedure: Mitochondrial remodelling has been previously associated with alterations in T cell fate (Buck et al., 2016; Yu et al., 2020b). Given the observed dependency of the UA effect on CD8^+ T cells, the inventors wondered whether UA may also directly affect T cell fate commitment. Purified T cells from FVB mice were stimulated with aCD3/aCD28 beads to induce T cell differentiation into effector T cell subsets in the presence or absence of UA for up to 72 hours (FIG. 2A). […] Previously, a rare naïve-like subset of T cells with enhanced stemness capabilities, termed T memory stem cells (TSCM) has been identified (Gattinoni et al., 2009). TSCM are marked by extreme longevity, their ability to self-renew, and potential for immune reconstitution (Gattinoni et al., 2017) which translates into potent anti-tumor immunity. Phenotypically, TSCM represent a subset of minimally differentiated T cells, which share a CD44^loCD62L^hi phenotype with naïve T cells, but are phenotypically distinct by expressing high levels of Sca1 (Gattinoni et al., 2009). […] This was associated with reduced cyclin D1 expression (not shown), in line with previous observations that link TSCM reprogramming to halted proliferation (Gattinoni et al., 2009; Verma et al., 2021).
Splenic murine T cells were isolated from mice aged 6-20 weeks by negative selection with EasySep mouse T cell isolation kit (Stem cell) according to the manufacturer's instructions. To monitor T cell proliferation, purified T cells were loaded with CellTrace Violet (C34557 ThermoFisher Scientific). T cell activation was initiated using αCD3/CD28 activation beads (11456D; ThermoFisher Scientific) at a ratio of 25 μl dynabeads per 0.5×10^6 T-cells. Cells were activated with 25-50 μM Urolithin A (Tocris) or DMSO in T cell activation Medium (RPMI (ThermoFisher Scientific) 10% FBS (South America origin), 10 mM Hepes (Sigma), 1× Non-Essential Amino Acid, 1 mM Sodium Pyruvate, 50 μM B-Mercaptoethanol, 100 U/ml penicillin, 100 μg/ml streptomycin and 2 mM Glutamax (ThermoFisher Scientific) for the indicated durations. In selected experiments, cells were stimulated in the presence of inhibitors, namely TCF1i (ICG-001; SelleckChem; 10 μM) and PGC-1αi (SR-18292, Sigma-Aldrich; 10 μm,). For subsequent analysis, activating beads were magnetically removed prior antibody staining. For human T cells, peripheral blood mononuclear cells were purified with a Ficoll-Paque (GE healthcare) gradient. T cells were enriched with EasySep Human T Cell Isolation Kit (StemCell) and activated with dynabead Human T-Activator CD3/CD28 for T Cell Expansion and Activation Kit (11131D; ThermoFisher Scientific), similar to murine T cell stimulation. […]
For flow cytometric analysis of mitochondria and lysosomes 500 μl of Mitotracker Red (200 nM; ThermoFisher) or Lysotracker Red DND-99 (75 nM; ThermoFisher) were applied followed by surface staining. To study changes in mitochondrial membrane potential, Mitoprobe TMRM kit (ThermoFisher) was used according to the manufacturer's instructions. Cell proliferation was assessed by CellTrace Violet (Invitrogen, C34557) at a concentration of 5 μM according to manufacturer's instructions. For human samples, cells were stained as described above with Fixable Viability Dye-eF780, αCD95-BV421 (DX2; 562616), αCD62L-PE (DREG-56; 555544), αCCR7-AF700 (150503; 561143), αCD45RO-APC (UCHL; 559865), αCD45RA-FITC (HI100; 555488), αCD8-PE-CF594 (RPA-T8; 562282) and αCD4-BV786 (OKT4; 566806) from BD.

[1] = 48 hours in presence of UA, prior to ACT
[2] = CD62L+CD44-CD8+ T cells, 48 h, UA 25 μM

O=c1oc2cc(O)ccc2c2ccc(O)cc12 [UA, Urolithin A]
phosphorylation of Stat1 (T cells; UA treated T cells compared to vehicle controls): equal phosphorylation | Parkin protein expression (T cells; immunoblot, 24 h, UA 50 μM): stabilized | b-catenin phosphorylation (T cells; immunoblot, after 6 hours, UA 50 μM): marked decrease | Pgam5 localization (T cells; sub-cellular fractionations and immunofluorescence, 6 h, UA 50 μM): rapidly released into the cytoplasma | TSCM formation, dependence on T cell activation (Splenic murine T cells): only formed in activated T cells | cyclin D1 expression (Splenic murine T cells): reduced | lysosome formation in CD8+ T cells (Splenic murine T cells; 6 h, UA 50 μM): enhanced | loss of mitochondrial content in T cell subsets (TSCM, TCM and TEFF) (Splenic murine T cells; 24 h): detected in all T cell subsets analyzed | number of CD44-CD62L+Sca1hi TSCM (Splenic murine T cells; 24 h, 48 h and 72 h after aCD3/aCD28 stimulation): significantly increased | CD95 expression of CD8+ T cells from OT-1 donors (Splenic murine T cells; [1]): enhanced | TSCM phenotype of CD8+ T cells from OT-1 donors (Splenic murine T cells; [1]): displayed a TSCM phenotype | TSCM formation in CD4+ cells (Splenic murine T cells; CD4+ cells): did not promote enhanced TSCM formation | frequency of TEM cells in CD4+ cells (Splenic murine T cells; CD4+ cells, later timepoints): enhanced frequency | naïve-like CD4+ cells (Splenic murine T cells; CD4+ cells, later timepoints): less | CD95 expression of TSCM (Splenic murine T cells; [2]): increased | mitochondrial membrane potential of TSCM (TMRM) (Splenic murine T cells; [2]): reduced | CD8+ T cell division (Splenic murine T cells; CellTrace Violet): restricted | differentiation into effector T cells (Granzyme B, IFNg expression) (Splenic murine T cells; T cells from FVB mice, aCD3/aCD28 beads, 48 h, UA vs DMSO): blocked | central memory cells (TCM) (Splenic murine T cells; aCD3/aCD28, up to 72 hours): reduction | frequency of effector memory cells (TEM) (Splenic murine T cells; aCD3/aCD28, up to 72 hours): remained unaltered | naïve CD44loCD62Lhi T cells (Splenic murine T cells; aCD3/aCD28, up to 72 hours): significant increase | mitochondrial content (MitoTracker Red) in CD8+ T cells (Splenic murine T cells; after 24 hours): loss of mitochondrial content in a dose-dependent manner | T cell death in vitro (Splenic murine T cells; in vitro): dose-dependent T cell death | PGC-1 expression in CD8+ T cells (Splenic murine T cells; prolonged UA administration in vitro, 48 h, 50 μM): marked upregulation | mitochondrial membrane potential in CD8+ T cells (Splenic murine T cells; within six hours, UA 50 μM): reduction
